Source: ChEMBL document CHEMBL4800728, “Data for DCP probe JNJ-54119936” (2021)

Columns and labels:
[1] = target: Nuclear receptor ROR-alpha (Homo sapiens) (UniProt P35398); experiment: ThermoFluor Binding Assay (RORA)
[2] = target: Activin receptor type-1B (Homo sapiens) (UniProt P36896); experiment: Alk4 Invitrogen kinase panel; settings: Compound concentration 10.0 uM
[3] = target: Tyrosine-protein kinase Blk (Homo sapiens) (UniProt P51451); experiment: Blk Invitrogen kinase panel; settings: Compound concentration 10.0 uM
[4] = target: Cyclin-dependent kinase 5/CDK5 activator 1 (Homo sapiens) (UniProt Q00535+Q15078); experiment: CDK5/p35 Invitrogen kinase panel; assay type: protein-complex assay; settings: Compound concentration 10.0 uM
[5] = target: Casein kinase I isoform epsilon (Homo sapiens) (UniProt P49674); experiment: CK1epsilon Invitrogen kinase panel; settings: Compound concentration 10.0 uM
[6] = target: Glycogen synthase kinase-3 beta (Homo sapiens) (UniProt P49841); experiment: GSK3beta Invitrogen kinase panel; settings: Compound concentration 10.0 uM
[7] = target: Insulin-like growth factor 1 receptor (Homo sapiens) (UniProt P08069); experiment: IGF-1R Invitrogen kinase panel; settings: Compound concentration 10.0 uM
[8] = target: Interleukin-1 receptor-associated kinase 4 (Homo sapiens) (UniProt Q9NWZ3); experiment: IRAK4 Invitrogen kinase panel; settings: Compound concentration 10.0 uM
[9] = target: Tyrosine-protein kinase JAK2 (Homo sapiens) (UniProt O60674); experiment: JAK2 Invitrogen kinase panel; settings: Compound concentration 10.0 uM
[10] = target: Tyrosine-protein kinase JAK3 (Homo sapiens) (UniProt P52333); experiment: JAK3 Invitrogen kinase panel; settings: Compound concentration 10.0 uM
[11] = target: Mitogen-activated protein kinase 12 (Homo sapiens) (UniProt P53778); experiment: p38gamma Invitrogen kinase panel; settings: Compound concentration 10.0 uM
[12] = target: Platelet-derived growth factor receptor beta (Homo sapiens) (UniProt P09619); experiment: PDGFRbeta Invitrogen kinase panel; settings: Compound concentration 10.0 uM
[13] = target: cAMP-dependent protein kinase catalytic subunit alpha (Homo sapiens) (UniProt P17612); experiment: PKA Invitrogen kinase panel; settings: Compound concentration 10.0 uM
[14] = target: Protein kinase C alpha type (Homo sapiens) (UniProt P17252); experiment: PKCalpha Invitrogen kinase panel; settings: Compound concentration 10.0 uM
[15] = target: Ribosomal protein S6 kinase alpha-2 (Homo sapiens) (UniProt Q15349); experiment: Rsk3 Invitrogen kinase panel; settings: Compound concentration 10.0 uM
[16] = target: T1, Oxysterols receptor LXR-beta (Homo sapiens) (UniProt P55055); experiment: (§1) LXRbeta In-house nuclear receptor screen; settings: Compound concentration 3.0 uM
T1 sequence (whole entry): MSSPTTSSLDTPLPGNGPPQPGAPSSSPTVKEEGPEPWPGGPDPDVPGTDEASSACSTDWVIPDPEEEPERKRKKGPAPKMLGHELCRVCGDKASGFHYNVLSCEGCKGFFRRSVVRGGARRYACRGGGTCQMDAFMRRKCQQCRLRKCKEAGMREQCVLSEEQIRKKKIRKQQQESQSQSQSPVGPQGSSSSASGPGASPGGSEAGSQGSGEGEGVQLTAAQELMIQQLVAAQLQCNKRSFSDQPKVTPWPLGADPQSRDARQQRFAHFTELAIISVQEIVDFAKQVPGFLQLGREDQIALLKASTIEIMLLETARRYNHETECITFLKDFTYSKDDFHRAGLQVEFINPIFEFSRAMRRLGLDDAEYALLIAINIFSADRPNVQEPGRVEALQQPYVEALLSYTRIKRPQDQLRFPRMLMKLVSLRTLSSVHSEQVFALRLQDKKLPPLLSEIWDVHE

[17] = target: Oxysterols receptor LXR-beta (Homo sapiens, UniProt P55055); experiment: as §1
[18] = target: T2, Bile acid receptor (Homo sapiens) (UniProt Q96RI1); experiment: (§2) FXR In-house nuclear receptor screen; settings: Compound concentration 3.0 uM
T2 sequence (whole entry): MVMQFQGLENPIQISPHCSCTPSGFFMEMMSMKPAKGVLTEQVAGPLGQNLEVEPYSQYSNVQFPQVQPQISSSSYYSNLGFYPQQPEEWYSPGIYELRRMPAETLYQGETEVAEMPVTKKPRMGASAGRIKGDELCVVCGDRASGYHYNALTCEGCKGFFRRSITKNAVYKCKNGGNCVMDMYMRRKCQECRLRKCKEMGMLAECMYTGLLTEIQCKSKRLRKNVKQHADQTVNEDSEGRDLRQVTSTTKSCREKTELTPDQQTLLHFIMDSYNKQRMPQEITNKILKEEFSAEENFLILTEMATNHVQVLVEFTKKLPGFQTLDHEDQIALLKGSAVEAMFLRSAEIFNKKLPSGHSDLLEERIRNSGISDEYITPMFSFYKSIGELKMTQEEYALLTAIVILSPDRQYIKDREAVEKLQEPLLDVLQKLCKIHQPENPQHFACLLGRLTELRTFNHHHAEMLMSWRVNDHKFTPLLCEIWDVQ

[19] = target: Bile acid receptor (Homo sapiens, UniProt Q96RI1); experiment: as §2
[20] = target: Adenosine receptor A2a (Homo sapiens) (UniProt P29274); experiment: A2a (h) CEREP screen
[21] = target: D(1A) dopamine receptor (Homo sapiens) (UniProt P21728); experiment: D1 (h) CEREP screen; settings: Compound concentration 10.0 uM
[22] = target: Endothelin-1 receptor (Homo sapiens) (UniProt P25101); experiment: ETA (h) CEREP screen; settings: Compound concentration 10.0 uM
[23] = target: C-C chemokine receptor type 1 (Homo sapiens) (UniProt P32246); experiment: CCR1 (h) CEREP screen; settings: Compound concentration 1.0 uM
[24] = target: Neuromedin-K receptor (Homo sapiens) (UniProt P29371); experiment: NK3 (h) CEREP screen
[25] = target: Mu-type opioid receptor (Homo sapiens) (UniProt P35372); experiment: Mu (h) CEREP screen; settings: Compound concentration 10.0 uM
[26] = target: Serotonin 3 (5-HT3) receptor (Homo sapiens) (UniProt P46098+A5X5Y0+O95264+Q70Z44+Q8WXA8); experiment: 5-HT3 (h) CEREP screen; assay type: protein-complex assay; settings: Compound concentration 10.0 uM
[27] = target: 5-hydroxytryptamine receptor 5A (Homo sapiens) (UniProt P47898); experiment: 5-HT5A (h) CEREP screen
[28] = target: Sodium-dependent dopamine transporter (Homo sapiens) (UniProt Q01959); experiment: dopamine transporter (h) CEREP screen
[29] = target: Vitamin D3 receptor (Homo sapiens) (UniProt P11473); experiment: VDR Indigo Bioscience nuclear receptor screen
[30] = target: Peroxisome proliferator-activated receptor alpha (Homo sapiens) (UniProt Q07869); experiment: PPARalpha Indigo Bioscience nuclear receptor screen; settings: Compound concentration 0.3 uM
[31] = target: T1, Oxysterols receptor LXR-beta (Homo sapiens); experiment: LXRbeta Indigo Bioscience nuclear receptor screen
[32] = target: 5-hydroxytryptamine receptor 2C (Homo sapiens) (UniProt P28335); settings: Compound concentration 10.0 uM
[33] = target: D(2) dopamine receptor (Homo sapiens) (UniProt P14416); settings: Compound concentration 10.0 uM
[34] = target: Alpha-1A adrenergic receptor (Homo sapiens) (UniProt P35348); settings: Compound concentration 10.0 uM
[35] = target: Muscarinic acetylcholine receptor M3 (Homo sapiens) (UniProt P20309); settings: Compound concentration 10.0 uM
[36] = target: Muscarinic acetylcholine receptor M4 (Homo sapiens) (UniProt P08173); settings: Compound concentration 10.0 uM
Sequence of Muscarinic acetylcholine receptor M4 (Homo sapiens) (P08173 whole entry): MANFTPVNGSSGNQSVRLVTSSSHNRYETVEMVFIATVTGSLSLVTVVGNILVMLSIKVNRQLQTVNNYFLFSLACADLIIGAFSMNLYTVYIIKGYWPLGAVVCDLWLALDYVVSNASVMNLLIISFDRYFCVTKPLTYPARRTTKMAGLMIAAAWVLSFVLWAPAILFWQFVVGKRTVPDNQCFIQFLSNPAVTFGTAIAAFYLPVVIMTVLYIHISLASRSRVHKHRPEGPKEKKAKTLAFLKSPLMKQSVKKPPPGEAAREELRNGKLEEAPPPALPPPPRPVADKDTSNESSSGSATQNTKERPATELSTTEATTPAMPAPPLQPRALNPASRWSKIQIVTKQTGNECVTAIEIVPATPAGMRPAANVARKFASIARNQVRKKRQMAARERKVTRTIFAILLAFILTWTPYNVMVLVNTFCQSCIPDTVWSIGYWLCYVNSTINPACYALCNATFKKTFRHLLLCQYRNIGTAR

Sequence of Sodium-dependent dopamine transporter (Homo sapiens) (Q01959 whole entry): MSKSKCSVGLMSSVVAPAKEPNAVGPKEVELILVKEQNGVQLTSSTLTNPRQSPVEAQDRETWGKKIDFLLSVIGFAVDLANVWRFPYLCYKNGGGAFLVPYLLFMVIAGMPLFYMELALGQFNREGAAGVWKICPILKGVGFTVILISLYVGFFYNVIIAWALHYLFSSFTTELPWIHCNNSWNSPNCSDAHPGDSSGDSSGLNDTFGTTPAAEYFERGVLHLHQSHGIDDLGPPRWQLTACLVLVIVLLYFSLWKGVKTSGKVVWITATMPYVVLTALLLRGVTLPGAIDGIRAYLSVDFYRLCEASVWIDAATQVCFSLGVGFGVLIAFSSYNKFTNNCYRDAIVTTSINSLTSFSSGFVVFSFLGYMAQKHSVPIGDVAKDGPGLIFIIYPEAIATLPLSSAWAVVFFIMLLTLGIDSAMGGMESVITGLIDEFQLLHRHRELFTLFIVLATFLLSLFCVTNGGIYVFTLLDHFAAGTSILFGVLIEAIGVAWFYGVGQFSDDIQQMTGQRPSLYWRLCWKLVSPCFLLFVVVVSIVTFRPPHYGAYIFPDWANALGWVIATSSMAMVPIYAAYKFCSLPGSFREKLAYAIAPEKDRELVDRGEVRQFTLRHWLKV
Sequence of Neuromedin-K receptor (Homo sapiens) (P29371 whole entry): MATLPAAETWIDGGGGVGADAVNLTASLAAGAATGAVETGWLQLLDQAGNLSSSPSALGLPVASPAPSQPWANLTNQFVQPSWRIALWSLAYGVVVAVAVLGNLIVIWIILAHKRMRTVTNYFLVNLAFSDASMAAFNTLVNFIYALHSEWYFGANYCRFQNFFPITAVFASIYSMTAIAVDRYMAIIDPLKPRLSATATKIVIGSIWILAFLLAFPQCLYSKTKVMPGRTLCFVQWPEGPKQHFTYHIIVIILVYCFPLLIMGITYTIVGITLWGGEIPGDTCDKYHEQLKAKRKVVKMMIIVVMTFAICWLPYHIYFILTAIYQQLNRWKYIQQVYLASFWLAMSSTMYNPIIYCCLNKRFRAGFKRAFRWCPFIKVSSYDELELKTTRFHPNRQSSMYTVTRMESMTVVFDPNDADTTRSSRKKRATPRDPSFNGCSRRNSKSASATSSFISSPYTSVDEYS
Sequence of Adenosine receptor A2a (Homo sapiens) (P29274 whole entry): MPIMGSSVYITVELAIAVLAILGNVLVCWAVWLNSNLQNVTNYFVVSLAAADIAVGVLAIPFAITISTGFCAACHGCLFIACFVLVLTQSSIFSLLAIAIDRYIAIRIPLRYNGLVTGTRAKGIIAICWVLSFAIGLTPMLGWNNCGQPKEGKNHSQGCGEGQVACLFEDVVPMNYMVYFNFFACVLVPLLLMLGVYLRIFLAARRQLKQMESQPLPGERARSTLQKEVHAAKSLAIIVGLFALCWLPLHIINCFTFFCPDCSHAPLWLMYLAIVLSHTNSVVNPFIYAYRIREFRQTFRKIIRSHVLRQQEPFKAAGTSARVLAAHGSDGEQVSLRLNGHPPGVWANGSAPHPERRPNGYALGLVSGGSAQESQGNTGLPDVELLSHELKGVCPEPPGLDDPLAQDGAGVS
Sequence of 5-hydroxytryptamine receptor 5A (Homo sapiens) (P47898 whole entry): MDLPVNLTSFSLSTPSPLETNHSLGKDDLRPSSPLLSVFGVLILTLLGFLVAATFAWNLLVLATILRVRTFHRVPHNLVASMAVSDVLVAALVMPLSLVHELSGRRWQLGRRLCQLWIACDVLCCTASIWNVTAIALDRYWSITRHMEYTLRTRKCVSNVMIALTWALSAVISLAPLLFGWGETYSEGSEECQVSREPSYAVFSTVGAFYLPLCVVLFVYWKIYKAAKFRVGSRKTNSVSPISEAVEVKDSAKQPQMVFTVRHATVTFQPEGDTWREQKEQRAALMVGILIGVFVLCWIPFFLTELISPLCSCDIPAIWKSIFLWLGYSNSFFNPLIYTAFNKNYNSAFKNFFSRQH
Sequence of Vitamin D3 receptor (Homo sapiens) (P11473 whole entry): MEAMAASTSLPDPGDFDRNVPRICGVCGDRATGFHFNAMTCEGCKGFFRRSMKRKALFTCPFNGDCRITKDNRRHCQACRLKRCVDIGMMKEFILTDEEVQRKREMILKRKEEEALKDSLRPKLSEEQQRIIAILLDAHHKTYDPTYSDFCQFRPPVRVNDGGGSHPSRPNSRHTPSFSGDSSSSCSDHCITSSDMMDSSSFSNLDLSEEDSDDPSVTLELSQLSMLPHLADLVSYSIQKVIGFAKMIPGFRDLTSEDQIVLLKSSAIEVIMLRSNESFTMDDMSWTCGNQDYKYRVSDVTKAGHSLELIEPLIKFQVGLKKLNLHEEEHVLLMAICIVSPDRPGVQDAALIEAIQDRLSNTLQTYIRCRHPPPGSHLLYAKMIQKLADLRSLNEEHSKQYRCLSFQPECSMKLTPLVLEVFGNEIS
Sequence of Tyrosine-protein kinase JAK2 (Homo sapiens) (O60674 whole entry): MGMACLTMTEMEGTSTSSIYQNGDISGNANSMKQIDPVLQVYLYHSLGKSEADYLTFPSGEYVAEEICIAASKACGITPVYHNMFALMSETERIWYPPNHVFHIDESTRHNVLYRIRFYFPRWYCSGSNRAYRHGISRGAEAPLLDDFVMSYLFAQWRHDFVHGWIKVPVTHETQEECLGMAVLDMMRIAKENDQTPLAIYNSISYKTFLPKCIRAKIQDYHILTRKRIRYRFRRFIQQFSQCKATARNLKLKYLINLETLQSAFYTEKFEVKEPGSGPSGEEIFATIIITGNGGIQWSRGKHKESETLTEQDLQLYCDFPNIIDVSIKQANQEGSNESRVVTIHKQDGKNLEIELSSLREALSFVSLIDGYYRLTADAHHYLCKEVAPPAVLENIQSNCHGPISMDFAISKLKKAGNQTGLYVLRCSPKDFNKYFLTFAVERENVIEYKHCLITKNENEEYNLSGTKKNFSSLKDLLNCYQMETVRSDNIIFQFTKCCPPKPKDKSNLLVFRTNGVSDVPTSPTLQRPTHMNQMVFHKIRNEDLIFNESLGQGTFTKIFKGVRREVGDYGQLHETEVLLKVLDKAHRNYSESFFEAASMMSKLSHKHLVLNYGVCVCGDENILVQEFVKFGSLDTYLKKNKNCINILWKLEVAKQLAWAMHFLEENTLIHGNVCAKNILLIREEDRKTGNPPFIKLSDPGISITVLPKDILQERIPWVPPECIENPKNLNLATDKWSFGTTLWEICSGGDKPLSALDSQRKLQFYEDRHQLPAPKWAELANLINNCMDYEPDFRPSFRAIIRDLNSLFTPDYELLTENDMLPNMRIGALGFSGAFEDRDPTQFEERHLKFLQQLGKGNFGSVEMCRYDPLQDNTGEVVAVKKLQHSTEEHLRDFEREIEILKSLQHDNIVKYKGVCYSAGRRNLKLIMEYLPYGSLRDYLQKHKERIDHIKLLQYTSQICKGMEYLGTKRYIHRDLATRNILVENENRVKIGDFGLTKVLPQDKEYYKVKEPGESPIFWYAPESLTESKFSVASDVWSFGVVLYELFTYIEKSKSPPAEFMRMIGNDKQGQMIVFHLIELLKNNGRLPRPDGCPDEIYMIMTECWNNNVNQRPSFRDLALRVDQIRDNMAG
Sequence of Glycogen synthase kinase-3 beta (Homo sapiens) (P49841 whole entry, looked up): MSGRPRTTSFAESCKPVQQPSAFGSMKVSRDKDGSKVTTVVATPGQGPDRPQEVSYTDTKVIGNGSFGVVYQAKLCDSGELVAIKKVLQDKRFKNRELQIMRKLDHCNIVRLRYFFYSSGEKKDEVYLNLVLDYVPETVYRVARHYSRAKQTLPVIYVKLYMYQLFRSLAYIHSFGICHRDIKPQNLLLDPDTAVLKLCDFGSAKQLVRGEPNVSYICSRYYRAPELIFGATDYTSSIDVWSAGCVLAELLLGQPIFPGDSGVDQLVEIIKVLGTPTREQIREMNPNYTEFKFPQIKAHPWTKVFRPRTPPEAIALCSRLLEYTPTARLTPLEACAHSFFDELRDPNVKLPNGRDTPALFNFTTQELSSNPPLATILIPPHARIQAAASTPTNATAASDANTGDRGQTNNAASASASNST
Sequence of C-C chemokine receptor type 1 (Homo sapiens) (P32246 whole entry): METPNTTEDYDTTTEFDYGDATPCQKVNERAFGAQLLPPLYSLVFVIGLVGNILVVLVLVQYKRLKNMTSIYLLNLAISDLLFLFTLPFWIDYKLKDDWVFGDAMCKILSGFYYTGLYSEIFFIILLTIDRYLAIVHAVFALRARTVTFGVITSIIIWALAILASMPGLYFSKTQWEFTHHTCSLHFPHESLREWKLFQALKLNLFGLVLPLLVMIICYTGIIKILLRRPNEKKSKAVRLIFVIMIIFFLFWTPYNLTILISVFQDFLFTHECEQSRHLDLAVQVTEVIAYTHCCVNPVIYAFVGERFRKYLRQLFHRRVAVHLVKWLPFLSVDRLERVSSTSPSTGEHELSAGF

COc1nc2ccc([C@@](O)(c3ccccc3)C3CCN(C(C)=O)CC3)cc2c(Cl)c1Cc1ccc(-n2cccn2)cc1 [JNJ-54119936]
qKD [1]: > 75 µM
inhibition [2]: -5%
inhibition [3]: 0%
inhibition [4]: -2%
inhibition [5]: 0%
inhibition [6]: 3%
inhibition [7]: 6%
inhibition [8]: 6%
inhibition [9]: 6%
inhibition [10]: 2%
inhibition [11]: 2%
inhibition [12]: 5%
inhibition [13]: 1%
inhibition [14]: 4%
inhibition [15]: 11%
inhibition [16]: 10%
IC50 [17]: ~5 µM
inhibition [18]: 33%
IC50 [19]: 5.8 µM
inhibition ([20]; Compound concentration 1.0 uM): 18%
inhibition ([20]; Compound concentration 10.0 uM): 21%
inhibition [21]: 16%
inhibition [22]: 12%
inhibition [23]: 17%
inhibition ([24]; Compound concentration 1.0 uM): 18%
inhibition ([24]; Compound concentration 10.0 uM): 22%
inhibition [25]: 15%
inhibition [26]: 18%
inhibition ([27]; Compound concentration 1.0 uM): 13%
inhibition ([27]; Compound concentration 10.0 uM): 23%
inhibition ([28]; Compound concentration 1.0 uM): 18%
inhibition ([28]; Compound concentration 10.0 uM): 30%
inhibition ([29]; Compound concentration 0.3 uM): -6.97%
inhibition ([29]; Compound concentration 1.0 uM): -0.284%
inhibition [30]: 1.34%
inhibition ([31]; Compound concentration 0.3 uM): 5.39%
inhibition ([31]; Compound concentration 1.0 uM): 8.98%
inhibition ([31]; Compound concentration 3.0 uM): 11%
inhibition [32]: 21.2%
inhibition [33]: 12.5%
inhibition [34]: 10.3%
inhibition [35]: 0.49%
inhibition [36]: 8.86%
